Values after ≈ are worked out from the molar mass of the structure shown.
Legend:
[1] = system: B. Circulans M-1123-5 acylase; assay: Selectivity of the acylases; settings: ester (I) 45 mg, amine (II) 9 mg, 37° C., 3 hours 45 minutes; TLC and paper-disc assay with Bacillus subtilis PCI-219
[2] = system: A. fragerum M-2183-1 acylase; assay: Selectivity of the acylases; settings: ester (I) 45 mg, amine (II) 9 mg, 37° C., 3 hours 45 minutes; TLC and paper-disc assay with Bacillus subtilis PCI-219
[3] = system: A. globiformis M-345-2 acylase; assay: Selectivity of the acylases; settings: ester (I) 45 mg, amine (II) 9 mg, 37° C., 3 hours 45 minutes; TLC and paper-disc assay with Bacillus subtilis PCI-219
Solubility in water = type: physicochemical; settings: read-out: concentration that can dissolve in water
[4] = system: acylase of Xanthomonas axonopodis M-621-1 on Sepharose 4B; assay: Cephalexin production with immobilized enzyme of Xanthomonas axonopodis M-621-1; type: biochemical; settings: ester 45 mg, 7-aminodeacetoxycephalosporanic acid 3 mg, 37° C., 3.5 hours
[5] = system: immobilized enzyme (acylase) of Bacillus circulans M-1123-5 on Sepharose 4B; assay: Reactivity of TA esters by batch process; type: biochemical; settings: 7-ACA to CET, 7-ACA 30 mg in 10 ml, pH 7.0, 37° C., 3 hours
Procedure: To a solution of 7-ACA (30 mg) and TA-esters (given amount) in M/10-phosphate buffer (pH 7.0) (10 ml) is added an immobilized enzyme (0.9 g) on Sepharose 4B, and the mixture is stirred at 37° C. for 3 hours. Concentration of CET in the reaction mixture is estimated by assaying antibacterial activity against Bacillus subtilis PCI-219 and conversion rate from 7-ACA to CET is calculated.

[6] = system: immobilized enzyme (acylase) of Bacillus circulans M-1123-5; assay: Reactivity of TA esters by column method; type: biochemical; settings: 7-ACA 5 mg/ml, 37° C., 25 ml/hr
Procedure: Concentration of CET in the eluate is determined by assaying antibacterial activity against Bacillus subtilis PCI-219 to estimate the yield on Table 3 in the laminar flow state. (Immobilization of purified enzyme)

[7] = system: acylase of Micrococcus roseus M-1054-1 (broth); assay: Cephalothin production with broth of Micrococcus roseus; type: biochemical; settings: 3.5 hours at 37° C.; paper disc assay against Bacillus subtilis PCI-219
Procedure: The broth is adjusted to pH 7.0. The broth (4.5 ml) is added to a solution of 7-ACA (3%) and (i) 2-thienylacetic acid glycerin ester, (ii) 2-thienylacetic acid tetraethyleneglycol ester or (iii) 2-thienylacetic acid octaethyleneglycol ester in 0.2 M-phosphate buffer (0.5 ml) to react for 3.5 hours at 37° C. The reaction mixture is centrifuged to remove cells and the supernatant is assayed by paper disc assay method against Bacillus subtilis PCI-219 to the following values of produced cephalothin.

[8] = system: purified acylase of Bacillus circulans M-1123-5 immobilized on agar gel; assay: Acylating capacity of immobilized pure enzyme; type: biochemical
[9] = system: immobilized enzyme from Arthrobacter globiformis M-345-2; assay: Acylating capacity of immobilized enzyme from Arthrobacter globiformis M-345-2; type: biochemical
[10] = system: acylase of Micrococcus luteus M-331-1 (immobilized cells); assay: CET production with immobilized cells in acrylamide gel; type: biochemical; settings: 7-ACA 1 mg/ml
Procedure: In a solution of acrylamide monomer (750 mg) and N,N'-methylenebisacrylamide (40 mg) in M/20-phosphate buffer (pH 7.0) (4 ml) are suspended said dry cells (1 g). To this solution is added 5% 3-dimethylaminopropionitrile (0.5 ml) and aqueous 1% potassium persulfate (0.5 ml) and the mixture is allowed to stand at 25° C. for 30 minutes. Produced gel is crushed with blender and produced particles over 100 mesh are collected, filled in a 10 mm .phi. tube, and washed with M/20-phosphate buffer (pH 7.0) to give a column (10.2 ml) of immobilized cells.

[11] = system: acylase of Bacillus circulans M-1123-5 absorbed on Celite 560; assay: Acylating capacity of absorbed enzyme on Celite 560; type: biochemical
[12] = system: acylase of Micrococcus luteus M-331-1 (dried cells); assay: CET production with dried cells of Micrococcus luteus M-331-1; type: biochemical; settings: dried cells 26 mg, 3 hours, 37° C., pH 7.0
Procedure: The broth is added into an aqueous medium (100 volumes) of the same composition as above, and incubated for 3 days at 28° C.
The broth is neutralized with hydrochloric acid to pH 7, centrifuged to collect the cells, washed with water and dried by washing with acetone to give 1.302 g of dry cells.
The dried cells (26 mg) are suspended in water (1.5 ml), diluted with a solution of 7-ACA (4 mg/ml) and TA-tetraester (20 mg/ml) in M/5-phosphate buffer (pH 7.0) (0.5 ml) and shaken for 3 hours at 37° C. to produce CET at a conversion rate of about 30%. (Immobilized cell entrapted in acrylamide gel)

[13] = TA-tetraester 12.5 mg/ml, pH 7.0
[14] = TA-tetraester 18.8 mg/ml, pH 7.0

COCCOCCOCCOCCOCCOC(=O)Cn1cnnn1
product detected and determined, B. Circulans M-1123-5 [1]: 55.7
product detected and determined, A. fragerum M-2183-1 [2]: 54.9
product detected and determined, A. globiformis M-345-2 [3]: 43.7

COCCOCCOC(=O)C(N)c1ccccc1 (stereo not shown)
product detected and determined, B. Circulans M-1123-5 [1]: 29.6
product detected and determined, A. globiformis M-345-2 [3]: 10.6

COC(=O)Cc1cccs1 [2-thienylacetic acid methyl ester]
solubility (Solubility in water): 10000 µg/mL (≈ 64 mM)

COCCOCCOC(=O)[C@H](N)c1ccccc1 [D-phenylglycin diethyleneglycol ester methyl ether]
conversion rate to cephalexin [4]: 26.3%

O=C(Cc1cccs1)OCC(O)CO (stereo not shown) [TA-glycerin ester, 2-thienylacetic acid glycerin ester]
Conversion rate (%) [5]: 73.7%
7-ACA→CET Conversion rate (%) ([6]; carrier Sepharose 4B): 82.0%
produced cephalothin [7]: 34 µg/mL

COCCOCCOCCOCCOCCOCCOCCOCCOC(=O)Cc1cccs1 [TA-octaester methyl ether]
Conversion rate (%) [5]: 68.2%
7-ACA→CET Conversion rate (%) ([8]; Elute 39 ml, 7-ACA 10 mg/ml, ester 142.2 mg/ml, 16 ml/hr): 84.8%
7-ACA→CET Conversion rate (%) ([8]; Elute 173 ml): 85.2%
7-ACA→CET Conversion rate (%) ([8]; Elute 306 ml): 85.3%
7-ACA→CET Conversion rate (%) ([8]; Elute 405 ml): 90.4%
7-ACA→CET Conversion rate (%) ([8]; Elute 731 ml): 85.7%
7-ACA→CET Conversion rate (%) ([8]; Elute 782 ml): 86.3%
7-ACA→CET Conversion rate (%) ([8]; Elute 917 ml): 88.5%
7-ACA→CET Conversion rate (%) ([8]; Elute 1089 ml): 86.9%
7-ACA→CET Conversion rate (%) ([8]; Elute 1156 ml): 86.6%
7-ACA→CET Conversion rate (%) ([8]; Elute 1294 ml): 82.5%
7-ACA→CET Conversion rate (%) ([8]; Elute 1432 ml): 83.1%
7-ACA→CET Conversion rate (%) ([8]; Elute 1534 ml): 82.0%
Conversion rate ([9]; 7-ACA 1 mg/ml, TA-ester 60, Agar gel): 80.5%
Conversion rate ([9]; 7-ACA 1 mg/ml, TA-ester 114, Agar gel): 76.5%
7-ACA→CET Conversion rate (%) ([6]; carrier Agar gel): 69.8%
7-ACA→CET Conversion rate (%) ([6]; carrier Sepharose 4B): 69.8%

O=C(Cc1cccs1)OCCOCCOCCOCCOCCOCCOCCOCCO [TA-octaester, 2-thienylacetic acid octaethyleneglycol ester]
Conversion rate (%) [5]: 76.2%
produced cephalothin [7]: 22 µg/mL

O=C(Cc1cccs1)OCCOCCOCCOCCOCCO [TA-pentaester]
Conversion rate (%) [5]: 80.6%
7-ACA→CET Conversion rate (%) ([6]; carrier Sepharose 4B): 69.9%

COCCOCCOCCOCCOC(=O)Cc1cccs1 [TA-tetraester methyl ether]
Conversion rate (%) [5]: 73.3%
7-ACA→CET Conversion rate (%) ([6]; carrier Agar gel): 86.5%
7-ACA→CET Conversion rate (%) ([6]; carrier Sepharose 4B): 86.5%

O=C(Cc1cccs1)OCCOCCOCCOCCO [TA-tetraester, 2-thienylacetic acid tetraethyleneglycol ester]
conversion rate (CET in eluate) ([10]; TA-tetraester 6 mg/ml): 28.6 to 32.5%
conversion rate (CET in eluate) ([10]; TA-tetraester 30 mg/ml): 31.2 to 34.1%
Conversion rate (%) [5]: 77.1%
7-ACA→CET Conversion rate (%) In eluate [11, 13]: 63.0%
7-ACA→CET Conversion rate (%) Isolated Na salt [11, 13]: 53.0%
7-ACA→CET Conversion rate (%) In eluate [11, 14]: 63.0%
7-ACA→CET Conversion rate (%) Isolated Na salt [11, 14]: 64.2%
7-ACA→CET Conversion rate (%) In eluate ([11]; TA-tetraester 25 mg/ml, pH 6.0): 62.8%
7-ACA→CET Conversion rate (%) Isolated Na salt ([11]; TA-tetraester 25 mg/ml, pH 6.0): 48.5%
7-ACA→CET Conversion rate (%) In eluate ([11]; TA-tetraester 25 mg/ml, pH 7.0): 72.9%
7-ACA→CET Conversion rate (%) Isolated Na salt ([11]; TA-tetraester 25 mg/ml, pH 7.0): 67.2%
7-ACA→CET Conversion rate (%) In eluate ([11]; TA-tetraester 25 mg/ml, pH 8.0): 71.6%
7-ACA→CET Conversion rate (%) Isolated Na salt ([11]; TA-tetraester 25 mg/ml, pH 8.0): 49.3%
Conversion rate ([9]; 7-ACA 1 mg/ml, TA-ester 114, Sephalose 4B): 78.5%
Conversion rate ([9]; 7-ACA 1 mg/ml, TA-ester 120, Sephalose 4B): 83.7%
Conversion rate ([9]; 7-ACA 2 mg/ml, TA-ester 120, Sephalose 4B): 71.0%
Conversion rate ([9]; 7-ACA 3 mg/ml, TA-ester 120, Sephalose 4B): 56.3%
7-ACA→CET Conversion rate (%) ([6]; carrier Agar gel): 85.0%
7-ACA→CET Conversion rate (%) ([6]; carrier Sepharose 4B): 87.6%
conversion rate (CET produced) [12]: about 30%
produced cephalothin [7]: 26 µg/mL

O=C(Cc1ccccc1)OCCOCCOCCOCCO [drawing 18]
product detected and determined, B. Circulans M-1123-5 [1]: 36.2
product detected and determined, A. fragerum M-2183-1 [2]: 16.1
product detected and determined, A. globiformis M-345-2 [3]: 10.1

O=C(Cc1ccccc1)OCCOCCOCCOCCO [drawing 20]
product detected and determined, B. Circulans M-1123-5 [1]: Decomposition with penicillinase
product detected and determined, A. fragerum M-2183-1 [2]: 20.3
product detected and determined, A. globiformis M-345-2 [3]: 18.0
